Measured values reported in US9783531B2, “Thiazole-substituted aminoheteroaryls as spleen tyrosine kinase inhibitors” (Merck Sharp & Dohme Corp., priority 2013, dated 2017).

System: not given
Experiment: not given
Conditions: phase II clinical trial, allergic rhinitis; cited from earlier work

Compound | efficacy versus placebo
Oc1cccc(Nc2ncc(F)c(Nc3cccc(O)c3)n2)c1 [Example R112] | lack of efficacy versus placebo

Biological target: T1, recombinant human GST-SYK (Homo sapiens, UniProt P43405)
T1 construct: purchased Carna Biosciences 08-176
Experiment: Homogeneous Time-Resolved Fluorescence (HTRF) assay for the recombinant human Syk enzyme
Type: biochemical
Conditions: recombinant human GST-SYK 5 pM, ATP 25 μM, read-out: rhSyk
Method: Homogeneous Time-Resolved Fluorescence (HTRF) Assay for the Recombinant Human Syk Enzyme
A recombinant GST-hSYK fusion protein was used to measure potency of compounds to inhibit human Syk activity. The recombinant human GST-SYK (Carna Biosciences #08-176) (5 pM final concentration) was incubated with various concentrations of the inhibitor diluted in DMSO (0.1% final concentration) for 10 minutes at room temperature in 15 mM Tris-HCl (pH 7.5), 0.01% tween 20, 2 mM DTT in 384 well plate format. To initiate the reaction the biotinylated substrate peptide (250 nM final concentration) that contains the phosphorylation site for Syk was added with magnesium (5 mM final concentration) and ATP (25 μM final concentration). Final volume of the reaction was 10 μL. Phosphorylation of the peptide was allowed to proceed for 45′ at room temperature. To quench the reaction and detect the phosphorylated product, 2 nM of a Europium-anti-phosphotyrosine antibody (Perkin Elmer #AD0161) and 70 nM SA-APC (Perkin-Elmer #CR130-100) were added together in 15 mM Tris pH 7.5, 40 mM EDTA, 0.01% tween 20. Final volume of the quenching solution was 10 μL.
The resulting HTRF signal was measured after 30 minutes on an EnVision (Perkin-Elmer) reader using a time-resolved fluorescence protocol. Table A below lists activities as IC50 values (nM) for representative compounds of the invention.

Compound | IC50 [nM]
Cc1cc(Nc2ncn(Cc3ccccc3)n2)cc(-c2cnc(C3(O)CCC3)s2)c1 [Example 2.19, 1-(5-{3-[(1-benzyl-1H-1,2,4-triazol-3-yl)amino]-5-methylphenyl}-1,3-thiazol-2-yl)cyclobutanol] | 325
Cc1cc(Nc2ncnn2C2CCC2)cc(-c2cnc([C@]3(O)CC[C@@H](C(=O)O)CC3)s2)c1 [Example 2.21, cis-4-(5-{3-[(1-cyclobutyl-1H-1,2,4-triazol-5-yl)amino]-5-methylphenyl}-1,3-thiazol-2-yl)-4-hydroxycyclohexane-carboxylic acid] | 3310
CCn1cnc(Nc2cc(C)cc(-c3cnc(C4(O)CCC4)s3)c2)n1 [Example 2.12, 1-(5-{3-[(1-ethyl-1H-1,2,4-triazol-3-yl)amino]-5-methylphenyl}-1,3-thiazol-2-yl)cyclobutanol] | 49.1
Cc1cc(Nc2ncn(C3CCC3)n2)cc(-c2cnc(C3(O)CCC3)s2)c1 [Example 2.17, 1-(5-{3-[(1-cyclobutyl-1H-1,2,4-triazol-3-yl)amino]-5-methylphenyl}-1,3-thiazol-2-yl)cyclobutanol] | 7.41
Cc1cc(Nc2ncn(C(C)C)n2)cc(-c2cnc(C3(O)CCC3)s2)c1 [Example 2.11, 1-[5-(3-methyl-5-{[1-(1-methylethyl)-1H-1,2,4-triazol-3-yl]amino}phenyl)-1,3-thiazol-2-yl]cyclobutanol] | 49.2
CCn1cnc(Nc2cc(C)cc(-c3cnc(C4(O)CCC(C(=O)OC(C)(C)C)CC4)s3)c2)n1 (centres unmarked) [Example 2.1, tert-butyl 4-(5-(3-((1-ethyl-1H-1,2,4-triazol-3-yl)amino)-5-methylphenyl)thiazol-2-yl)-4-hydroxycyclohexanecarboxylate] | 1110
Cc1cc(Nc2ncn(C)n2)cc(-c2cnc(C3(O)CCC3)s2)c1 [Example 2.10, 1-(5-{3-methyl-5-[(1-methyl-1H-1,2,4-triazol-3-yl)amino]phenyl}-1,3-thiazol-2-yl)cyclobutanol] | 188
Cc1cc(Nc2cc(C3CCC3)[nH]n2)cc(-c2cnc(C3(O)CCC3)s2)c1 [Example 2.7, 1-(5-{3-[(5-cyclobutyl-1H-pyrazol-3-yl)amino]-5-methylphenyl}-1,3-thiazol-2-yl)cyclobutanol] | 274
CCn1cnc(Nc2cc(C)cc(-c3cnc(C4(O)CCC(C(=O)O)CC4)s3)c2)n1 (centres unmarked) [Example 2.2, 4-(5-(3-((1-ethyl-1H-1,2,4-triazol-3-yl)amino)-5-methylphenyl)thiazol-2-yl)-4-hydroxycyclohexanecarboxylic acid] | 10.1
CCCn1cnc(Nc2cc(C)cc(-c3cnc(C4(O)CCC4)s3)c2)n1 [Example 2.13, 1-(5-{3-methyl-5-[(1-propyl-1H-1,2,4-triazol-3-yl)amino]phenyl}-1,3-thiazol-2-yl)cyclobutanol] | 96.7
Cc1cc(Nc2n[nH]c(C)n2)cc(-c2cnc(C3(O)CCC3)s2)c1 [Example 2.9, 1-(5-{3-methyl-5-[(5-methyl-1H-1,2,4-triazol-3-yl)amino]phenyl}-1,3-thiazol-2-yl)cyclobutanol] | 1300
Cc1cc(Nc2cc(C3CC3)[nH]n2)cc(-c2cnc(C3(O)CCC3)s2)c1 [Example 2.6, 1-(5-{3-[(5-cyclopropyl-1H-pyrazol-3-yl)amino]-5-methylphenyl}-1,3-thiazol-2-yl)cyclobutanol] | 181
Cc1cc(Nc2ncn(C(C)C)n2)cc(-c2cnc([C@]3(O)CC[C@@H](C(=O)OC(C)(C)C)CC3)s2)c1 [Example 2.20, tert-butyl cis-4-hydroxy-4-[5-(3-methyl-5-{[1-(1-methylethyl)-1H-1,2,4-triazol-3-yl]amino}phenyl)-1,3-thiazol-2-yl]cyclohexanecarboxylate] | 1000
Cc1cc(Nc2ncn(C)n2)cc(-c2cnc(C3(O)CCC(C(=O)OC(C)(C)C)CC3)s2)c1 (centres unmarked) [Example 1.1, tert-butyl 4-hydroxy-4-(5-(3-methyl-5-((1-methyl-1H-1,2,4-triazol-3-yl)amino)phenyl)thiazol-2-yl)cyclohexanecarboxylate] | 1160
Cc1cc(Nc2ncn(C3CCC3)n2)cc(-c2cnc([C@]3(O)CC[C@@H](C(=O)O)C(C)(C)C3)s2)c1 (single isomer, unassigned) [Example 2.25, (1R,4S or 1S,4R)-4-(5-{3-[(1-cyclobutyl-1H-1,2,4-triazol-3-yl)amino]-5-methylphenyl}-1,3-thiazol-2-yl)-4-hydroxy-2,2-dimethylcyclohexanecarboxylic acid] | 2.54
Cc1cc(Nc2cc[nH]n2)cc(-c2cnc(C3(O)CCC3)s2)c1 [Example 2.4, 1-{5-[3-methyl-5-(1H-pyrazol-3-ylamino)phenyl]-1,3-thiazol-2-yl}cyclobutanol] | 1140
Cc1cc(Nc2cc(C)[nH]n2)cc(-c2cnc(C3(O)CCC3)s2)c1 [Example 2.5, 1-(5-{3-methyl-5-[(5-methyl-1H-pyrazol-3-yl)amino]phenyl}-1,3-thiazol-2-yl)cyclobutanol] | 941

The next lines start with the values.

IC50 [nM] | Compound
7710 | Cc1cc(Nc2ncnn2C2CCC2)cc(-c2cnc(C3(O)CCC3)s2)c1 [Example 2.18, 1-(5-{3-[(1-cyclobutyl-1H-1,2,4-triazol-5-yl)amino]-5-methylphenyl}-1,3-thiazol-2-yl)cyclobutanol]
3860 | Cc1cc(Nc2ncn(C(=O)N(C)C)n2)cc(-c2cnc(C3(O)CCC3)s2)c1 [Example 2.15, 3-({3-[2-(1-hydroxycyclobutyl)-1,3-thiazol-5-yl]-5-methylphenyl}amino)-N,N-dimethyl-1H-1,2,4-triazole-1-carboxamide]
365 | Cc1cc(Nc2ncn(-c3ccccc3)n2)cc(-c2cnc(C3(O)CCC3)s2)c1 [Example 2.14, 1-(5-{3-methyl-5-[(1-phenyl-1H-1,2,4-triazol-3-yl)amino]phenyl}-1,3-thiazol-2-yl)cyclobutanol]
115 | Cc1cc(Nc2ncn(C3CCCCC3)n2)cc(-c2cnc(C3(O)CCC3)s2)c1 [Example 2.16, 1-(5-{3-[(1-cyclohexyl-1H-1,2,4-triazol-3-yl)amino]-5-methylphenyl}-1,3-thiazol-2-yl)cyclobutanol]
56.5 | Cc1cc(Nc2ncn(C)n2)cc(-c2cnc(C3(O)CCC(C(=O)O)CC3)s2)c1 (centres unmarked) [Example 1.2, 4-hydroxy-4-(5-(3-methyl-5-((1-methyl-1H-1,2,4-triazol-3-yl)amino)phenyl)thiazol-2-yl)cyclohexanecarboxylic acid]
49.6 | CCn1cnc(Nc2cc(C)cc(-c3cnc([C@]4(O)CC[C@@H](C(N)=O)CC4)s3)c2)n1 [Example 2.3, 4-(5-(3-((1-Ethyl-1H-1,2,4-triazol-3-yl)amino)-5-methylphenyl)thiazol-2-yl)-4-hydroxycyclohexanecarboxamide]
36.8 | Cc1cc(Nc2ncn(C(C)C)n2)cc(-c2cnc([C@]3(O)CC[C@@H](C(N)=O)CC3)s2)c1 [Example 2.23, cis-4-hydroxy-4-[5-(3-methyl-5-{[1-(1-methylethyl)-1H-1,2,4-triazol-3-yl]amino}phenyl)-1,3-thiazol-2-yl]cyclohexanecarboxamide]
9.94 | Cc1cc(Nc2ncn(C(C)C)n2)cc(-c2cnc([C@]3(O)CC[C@@H](C(=O)O)CC3)s2)c1 [Example 2.22, cis-4-hydroxy-4-[5-(3-methyl-5-{[1-(1-methylethyl)-1H-1,2,4-triazol-3-yl]amino}phenyl)-1,3-thiazol-2-yl]cyclohexanecarboxylic acid]
0.388 | Cc1cc(Nc2ncn(C3CCC3)n2)cc(-c2cnc([C@]3(O)CC[C@@H](C(=O)O)C(C)(C)C3)s2)c1 (single isomer, unassigned) [Example 2.24, (1R,4S or 1S,4R)-4-(5-{3-[(1-cyclobutyl-1H-1,2,4-triazol-3-yl)amino]-5-methylphenyl}-1,3-thiazol-2-yl)-4-hydroxy-2,2-dimethylcyclohexanecarboxylic acid]

System: not given
Experiment: not given
Conditions: dosed intranasally, phase I/II study, allergic rhinitis; cited from earlier work

Compound | PGD2 (immune mediator) | clinical safety
Oc1cccc(Nc2ncc(F)c(Nc3cccc(O)c3)n2)c1 [Example R112] | statistically significant decrease in PGD2 | safe across a range of indicators
